Results as given in ChEMBL document CHEMBL3091293, “The synthesis and biodistribution of [(11)C]metformin as a PET probe to study hepatobiliary transport mediated by the multi-drug and toxin extrusion transporter 1 (MATE1) in vivo” (Bioorg Med Chem, 2013).

Key:
[1] = system: Plasma; experiment: Unbound plasma concentration in ddY mouse at 5 mg/kg; assay type: ADME, organism-based; design: dose 5 mg/kg; details: in vivo
[2] = system: Plasma; experiment: Plasma concentration in ddY mouse at 5 mg/kg; assay type: ADME, organism-based; design: dose 5 mg/kg; details: in vivo
[3] = biological target: T1, Solute carrier family 22 member 1 (Mus musculus, UniProt O08966); experiment: Inhibition of mouse Oct1 transfected in HEK293 cells assessed as uptake of [14C]-TEA preincubated for 15 mins by liquid scintillation counting analysis; assay type: cell-based
T1 sequence (O08966 whole entry): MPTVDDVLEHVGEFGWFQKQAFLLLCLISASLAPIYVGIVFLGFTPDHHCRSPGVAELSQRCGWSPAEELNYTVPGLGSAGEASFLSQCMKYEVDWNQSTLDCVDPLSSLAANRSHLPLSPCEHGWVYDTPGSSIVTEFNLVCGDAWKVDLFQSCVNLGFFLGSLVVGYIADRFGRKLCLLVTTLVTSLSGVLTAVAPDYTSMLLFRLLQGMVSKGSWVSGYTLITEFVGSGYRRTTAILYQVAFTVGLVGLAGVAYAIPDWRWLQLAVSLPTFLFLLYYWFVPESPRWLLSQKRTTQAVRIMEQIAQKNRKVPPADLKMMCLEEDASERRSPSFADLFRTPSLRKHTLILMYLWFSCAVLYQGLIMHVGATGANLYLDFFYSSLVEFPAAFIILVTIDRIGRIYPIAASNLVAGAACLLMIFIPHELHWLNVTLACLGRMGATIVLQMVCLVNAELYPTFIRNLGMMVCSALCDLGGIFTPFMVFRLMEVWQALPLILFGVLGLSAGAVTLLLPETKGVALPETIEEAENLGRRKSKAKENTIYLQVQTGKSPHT

[4] = biological target: T2, Multidrug and toxin extrusion protein 1 (Mus musculus, UniProt Q8K0H1); experiment: Inhibition of mouse Mate1 transfected in HEK293 cells assessed as uptake of [14C]-TEA preincubated for 15 mins by liquid scintillation counting analysis; assay type: cell-based
T2 sequence (Q8K0H1 whole entry): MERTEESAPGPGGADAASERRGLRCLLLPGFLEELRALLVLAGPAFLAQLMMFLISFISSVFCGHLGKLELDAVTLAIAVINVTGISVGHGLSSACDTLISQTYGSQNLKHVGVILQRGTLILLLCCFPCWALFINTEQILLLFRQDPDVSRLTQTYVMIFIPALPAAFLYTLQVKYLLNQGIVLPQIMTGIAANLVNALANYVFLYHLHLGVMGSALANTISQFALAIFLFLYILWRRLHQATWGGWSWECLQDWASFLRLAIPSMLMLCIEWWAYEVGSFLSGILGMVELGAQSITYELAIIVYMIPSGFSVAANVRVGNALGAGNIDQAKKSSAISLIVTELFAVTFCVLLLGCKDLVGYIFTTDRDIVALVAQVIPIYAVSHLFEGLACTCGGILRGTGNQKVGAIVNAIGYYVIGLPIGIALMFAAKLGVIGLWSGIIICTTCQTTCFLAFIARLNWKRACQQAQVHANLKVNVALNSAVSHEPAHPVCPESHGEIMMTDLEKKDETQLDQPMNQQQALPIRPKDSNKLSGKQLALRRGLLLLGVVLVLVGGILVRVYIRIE

- Cp(f) [1]: 0.3 µM
- concentration [2]: 3.7 µM
- Ki [3]: 3.6 µM
Compound: CCc1nc(N)nc(N)c1-c1ccc(Cl)cc1 [PYRIMETHAMINE]
- Ki [4]: 0.145 µM
